Our source for the IC50 values is ChEMBL document CHEMBL4627324, “Design and synthesis of novel 2-arylbenzimidazoles as selective mutant isocitrate dehydrogenase 2 R140Q inhibitors” (Bioorg Med Chem Lett, 2020).

Values joined by “and” are separate entries in the source; they are usually repeats but may differ in a detail not shown here. Identical values can stand only once.

The target in assay [1] is Isocitrate dehydrogenase [NADP], mitochondrial (Homo sapiens, UniProt P48735, R140Q). The assay is described as follows: Inhibition of IDH2 R140Q mutant (unknown origin).
Assay [2] addresses Isocitrate dehydrogenase [NADP] cytoplasmic (Homo sapiens, UniProt O75874). The assay is described as follows: Inhibition of wild type IDH1 (unknown origin).
For assay [3], the target named is Isocitrate dehydrogenase [NADP] cytoplasmic (Homo sapiens, UniProt O75874, R132C). Kind of assay: Inhibition of IDH1 R132C mutant (unknown origin).
The target in assay [4] is Isocitrate dehydrogenase [NADP] cytoplasmic (Homo sapiens, UniProt O75874, R132H). The assay is described as follows: Inhibition of IDH1 R132H mutant (unknown origin).
Assay [5] has as its target T1, Isocitrate dehydrogenase [NADP], mitochondrial (Homo sapiens, UniProt P48735).
T1 sequence (P48735 whole entry): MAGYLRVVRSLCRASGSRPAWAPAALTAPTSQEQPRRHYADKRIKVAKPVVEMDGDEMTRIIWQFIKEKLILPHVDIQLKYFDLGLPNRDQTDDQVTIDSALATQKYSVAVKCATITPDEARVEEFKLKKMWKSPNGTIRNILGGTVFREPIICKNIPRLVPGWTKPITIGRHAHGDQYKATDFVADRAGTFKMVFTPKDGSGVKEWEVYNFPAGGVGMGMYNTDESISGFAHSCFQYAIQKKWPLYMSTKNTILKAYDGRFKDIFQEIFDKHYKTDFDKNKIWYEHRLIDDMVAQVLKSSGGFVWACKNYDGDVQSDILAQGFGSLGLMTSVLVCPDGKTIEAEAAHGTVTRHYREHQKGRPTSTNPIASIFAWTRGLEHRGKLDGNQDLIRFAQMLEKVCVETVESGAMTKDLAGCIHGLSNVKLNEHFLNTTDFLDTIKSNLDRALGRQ
Kind of assay: Inhibition of wild type IDH2 (unknown origin).

For assay [6], the target named is Isocitrate dehydrogenase [NADP], mitochondrial (Homo sapiens, UniProt P48735, R172K). The assay is described as follows: Inhibition of IDH2 R172K mutant (unknown origin).
Isocitrate dehydrogenase [NADP], mitochondrial (Homo sapiens, UniProt P48735, R172K), sequence (P48735 40-452 R172K limits assumed): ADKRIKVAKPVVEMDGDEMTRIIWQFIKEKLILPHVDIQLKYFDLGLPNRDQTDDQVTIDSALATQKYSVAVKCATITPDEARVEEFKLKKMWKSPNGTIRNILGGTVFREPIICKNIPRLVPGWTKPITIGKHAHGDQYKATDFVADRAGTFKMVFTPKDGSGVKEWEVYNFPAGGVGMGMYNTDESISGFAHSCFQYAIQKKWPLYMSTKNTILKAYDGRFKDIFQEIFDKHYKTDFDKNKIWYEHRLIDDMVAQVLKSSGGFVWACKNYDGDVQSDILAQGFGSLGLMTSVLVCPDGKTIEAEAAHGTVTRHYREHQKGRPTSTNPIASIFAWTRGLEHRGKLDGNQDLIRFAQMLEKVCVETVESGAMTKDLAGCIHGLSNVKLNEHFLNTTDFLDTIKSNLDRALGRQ

Isocitrate dehydrogenase [NADP] cytoplasmic (Homo sapiens, UniProt O75874, R132H), sequence (O75874 2-414 R132H limits assumed): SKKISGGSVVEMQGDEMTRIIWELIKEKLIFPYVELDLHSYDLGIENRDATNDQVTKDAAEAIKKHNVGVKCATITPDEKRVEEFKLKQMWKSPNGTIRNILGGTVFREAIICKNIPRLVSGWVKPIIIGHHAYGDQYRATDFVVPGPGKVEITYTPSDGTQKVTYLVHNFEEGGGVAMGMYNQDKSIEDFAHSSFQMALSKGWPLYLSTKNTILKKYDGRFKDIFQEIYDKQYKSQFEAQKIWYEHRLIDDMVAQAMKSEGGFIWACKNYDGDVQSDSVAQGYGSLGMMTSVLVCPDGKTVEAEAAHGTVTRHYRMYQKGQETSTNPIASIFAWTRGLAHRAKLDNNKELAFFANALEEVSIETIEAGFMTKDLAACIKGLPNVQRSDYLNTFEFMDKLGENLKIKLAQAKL
Isocitrate dehydrogenase [NADP] cytoplasmic (Homo sapiens, UniProt O75874, R132C), sequence (O75874 2-414 R132C limits assumed): as the sequence (O75874 2-414 R132H limits assumed) above, with H131C counted along it
Isocitrate dehydrogenase [NADP], mitochondrial (Homo sapiens, UniProt P48735, R140Q), sequence (P48735 40-452 R140Q limits assumed): as the sequence (P48735 40-452 R172K limits assumed) above, with R101Q, K133R counted along it
Isocitrate dehydrogenase [NADP] cytoplasmic (Homo sapiens, UniProt O75874), sequence (O75874 whole entry): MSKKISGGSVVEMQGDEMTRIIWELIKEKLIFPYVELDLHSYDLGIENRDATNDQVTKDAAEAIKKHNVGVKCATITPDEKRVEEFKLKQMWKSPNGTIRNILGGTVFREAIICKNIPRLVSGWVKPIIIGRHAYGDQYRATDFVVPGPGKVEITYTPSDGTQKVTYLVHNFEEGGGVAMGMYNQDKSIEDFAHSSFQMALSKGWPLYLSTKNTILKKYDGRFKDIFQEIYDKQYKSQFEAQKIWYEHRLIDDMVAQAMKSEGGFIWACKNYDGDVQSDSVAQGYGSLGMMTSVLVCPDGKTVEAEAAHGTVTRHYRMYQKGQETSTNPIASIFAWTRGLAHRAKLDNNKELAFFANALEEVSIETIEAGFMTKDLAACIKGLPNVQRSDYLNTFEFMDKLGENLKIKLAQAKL

Usually IC50 stands for the concentration at which inhibition is half-maximal. `O=S(=O)(NC1CC1)c1ccc(-c2ccsc2)c(Nc2nc3cc(Br)ccc3[nH]2)c1`: the concentration for half-maximal inhibition (IC50) in assay [1] was 2.02 µM and 0.26 µM; in assay [2] it was above 100 µM; in assay [3] it was above 100 µM; in assay [4], above 100 µM; in assay [5], above 100 µM; in assay [6], above 100 µM.

`Cc1ccccc1C(C(=O)NC1CCCCC1)N(C(=O)Cn1ccnc1C)c1cccc(F)c1` (configuration not stated): the IC50 in assay [1] is above 100 µM; in assay [2], above 100 µM; in assay [3], 0.39 µM; in assay [4] it was 0.17 µM; in assay [5], above 100 µM; in assay [6], above 100 µM.

In the case of `O=C(Nc1cccc(C(F)(F)F)c1)Nc1cc(S(=O)(=O)NC2CC2)ccc1-c1ccsc1`, the IC50 in assay [2], in assay [3] and in assay [4] was above 100 µM throughout.

In assay [1], `O=S(=O)(NC1CC1)c1ccc(-c2ccsc2)c(Nc2nc3ccc(F)c(F)c3[nH]2)c1` displayed a half-maximal inhibitory concentration (IC50) of 13.8 µM.

Regarding `O=S(=O)(NC1CC1)c1ccc(-c2ccsc2)c(Nc2nc3cc(F)ccc3[nH]2)c1`, the IC50 in assay [1] was 0.73 µM; in assay [2], above 100 µM; in assay [3] it was above 100 µM; in assay [4], above 100 µM; in assay [5], above 100 µM; in assay [6], 78.8 µM.

The compound `N#Cc1ccc2nc(Nc3cc(S(=O)(=O)NC4CC4)ccc3-c3ccsc3)[nH]c2c1` displayed an IC50 in assay [1] of 97.9 µM.

`COc1ccc2nc(Nc3cc(S(=O)(=O)NC4CC4)ccc3-c3ccsc3)[nH]c2c1` gave an IC50 in assay [1] of 46.9 µM.

In the case of `O=S(=O)(NC1CC1)c1ccc(-c2ccsc2)c(Nc2nc3ccc(C(F)(F)F)cc3[nH]2)c1`, the IC50 in assay [1] turned out to be 14.1 µM.

In the case of `CC(C)(O)CNc1nc(Nc2ccnc(C(F)(F)F)c2)nc(-c2cccc(C(F)(F)F)n2)n1` [ENASIDENIB], the IC50 was 0.31 µM in assay [1]; above 100 µM in assay [2]; above 100 µM in assay [3]; above 100 µM in assay [4]; above 100 µM in assay [5]; 1.08 µM in assay [6].

Consider `O=S(=O)(NC1CC1)c1ccc(-c2ccsc2)c(Nc2nc3ccc(F)c(Cl)c3[nH]2)c1`, for which the half-inhibitory concentration (IC50) in assay [1] is 10.3 µM.

`Cc1ccc2nc(Nc3cc(S(=O)(=O)NC4CC4)ccc3-c3ccsc3)[nH]c2c1C` returned a concentration for half-maximal inhibition (IC50) in assay [1] of 1.61 µM.

Consider `O=S(=O)(NC1CC1)c1ccc(-c2ccsc2)c(Nc2nc3ccc(Cl)c(Cl)c3[nH]2)c1`, for which half-maximal inhibition in assay [1] (IC50) required 2.72 µM.

The compound `COC(=O)c1ccc2nc(Nc3cc(S(=O)(=O)NC4CC4)ccc3-c3ccsc3)[nH]c2c1` showed an IC50 in assay [1] above 100 µM.

In assay [1], `O=S(=O)(NC1CC1)c1ccc(-c2ccsc2)c(Nc2nc3ccc(Cl)cc3[nH]2)c1` gave a 50% inhibitory concentration (IC50) of 11.9 µM.

In the case of `O=S(=O)(NC1CC1)c1ccc(-c2ccsc2)c(Nc2nc3ccc(C(F)(F)F)c(Cl)c3[nH]2)c1`, the IC50 in assay [1] turned out to be 4.34 µM.

Take `Cc1cc(C)c2[nH]c(Nc3cc(S(=O)(=O)NC4CC4)ccc3-c3ccsc3)nc2c1`: the half-inhibitory concentration (IC50) in assay [1] was 0.96 µM; in assay [2] it was above 100 µM; in assay [3] it was above 100 µM; in assay [4], above 100 µM; in assay [5] it was above 100 µM; in assay [6] it was 51.8 µM.

The compound `O=S(=O)(NC1CC1)c1ccc(-c2ccsc2)c(Nc2nc3ccccc3[nH]2)c1` returned a half-inhibitory concentration (IC50) in assay [1] of 5.41 µM.

`CCOC(=O)c1ccc2nc(Nc3cc(S(=O)(=O)NC4CC4)ccc3-c3ccsc3)[nH]c2c1` had an IC50 in assay [1] above 100 µM.

In turn, `O=S(=O)(NC1CC1)c1ccc(-c2ccsc2)c(Nc2nc3cc(F)cc(F)c3[nH]2)c1` returned an IC50 in assay [1] of 4.94 µM.

Consider `O=S(=O)(NC1CC1)c1ccc(-c2ccsc2)c(Nc2nc3ccc(Br)c(Br)c3[nH]2)c1`, for which the IC50 in assay [1] is 0.65 µM; in assay [2], above 100 µM; in assay [3] it was above 100 µM; in assay [4], above 100 µM; in assay [5], above 100 µM; in assay [6] it was above 100 µM.
